{
  "source": "patent US7863262B2",
  "about": "“Nitroxyl progenitors in the treatment of heart failure” (Johns Hopkins University, priority 2002, dated 2011)",
  "key": {"[1]": {"test_system": "conscious dogs experiencing congestive heart failure (CHF)", "format": "in vivo, mongrel dogs", "conditions": "for cardiac load as measured by Edv (preload) and Ea (afterload): FIG. 1"}, "[2]": {"test_system": "reperfused myocardium", "conditions": "anesthetized rabbits; given 5 minutes prior to reperfusion (after ischemia); Ma et al. 1999; cited from earlier work"}, "[3]": {"test_system": "rat renal tissue", "conditions": "given during ischemia and 5 minutes before reperfusion; Takahira et al. 2001; cited from earlier work"}, "[4]": {"assay": "Long-term infusion (3-4 hours of perfusion)", "format": "in vivo", "method": "In particular embodiments the HNO/NO^− donating compound is administered in the form of a pharmaceutical composition. A pharmaceutical composition comprising an effective amount of the HNO/NO^− donating compound as an active ingredient could be easily prepared by standard procedures well known in the art, with pharmaceutically acceptable non-toxic solvents and/or sterile carriers, if necessary. Such preparations are administered orally or in injectable form, or directly to myocardial tissue. In other embodiments the HNO/NO^− donor is administered without a pharmaceutical carrier. In particular embodiments the HNO/NO^− donor is administered by a short-term infusion, such as for 5 to 20 minutes. In other embodiments the HNO/NO^− donor is administered by a long-term infusion, such as from 3-4 hours."}, "[5]": {"test_system": "normal conscious dogs under beta-antagonist therapy with propranolol", "format": "in vivo", "conditions": "propranolol 2 milligrams/kg in bolus; normal subject"}, "[6]": {"test_system": "CGRP receptors", "assay": "CGRP receptor antagonism with CGRP8-37 in conscious dogs experiencing heart failure", "format": "in vivo, mongrel dogs", "conditions": "FIG. 6", "method": "The diagnostic tests included Ees, DEDV, PRSW, tau, Pes, end diastolic pressure (Ped), end diastolic volume (Ved), and Ea.\nTo test the relation between the inotropic action of HNO/NO^− and calcitonin gene-related peptide (CGRP) signaling, CGRP receptors in mongrel dogs were antagonized using the selective antagonist CGRP8-37 (400 μg in 30 milliliters (ml) of saline bolus, then 2.6 μg/kg/min for 15 min). Plasma CGRP levels measurements were performed by sampling the blood of the dogs. Blood samples (2.5 ml) were withdrawn from arterial, venous, and coronary sinus catheters. After sampling, catheters were flushed with heparanized saline. Samples were centrifuged at 1600 times gravity (g) for 20 minutes at 4° Celsius (C). Plasma was then separated and stored at −20° C. until analysis. Plasma (0.5 ml) was used to extract CGRP by addition of 0.8 ml of ethanol. The mixture was centrifuged at 1600 g for 20 minutes. After removing the supernatant, the extracted samples were air dried at room temperature overnight and then stored at 4° C. Immediately prior to assay, dried samples were reconstituted with assay buffer following manufacturer's instructions (Peninsula Labs) and assayed for CGRP by radioimmunoassay (RIA). CGRP antiserum, code RAS 6012, was used. The dynamic assay range was 1-128 picograms (pg) per 300 microliters (μL) of sample. […]"}},
  "note": "“Also recorded” adds a separate entry of the source. Ends that are not written are not given here.",
  "data": [
    {"molecule": "[Na+].[Na+].[O-][N+]([O-])=NO", "note": "[Angeli's salt, sodium trioxodinitrate]", "values": [
      {"measurement": "cardiac load as measured by Edv (preload) and Ea (afterload)", "setting": "[1]", "value": "lowered left ventricular preload; also recorded: reduced the cardiac load"},
      {"measurement": "myocardial ischemia/reperfusion injury", "setting": "[2]", "value": "increased myocardial ischemia/reperfusion injury"},
      {"measurement": "neutrophil infiltration into renal tissue", "setting": "[3]", "value": "contributed to neutrophil infiltration into the tissue"},
      {"measurement": "persistence of beneficial effects during long-term infusion", "setting": "[4]", "value": "retains its beneficial effects during 3-4 hours of perfusion"}
    ]},
    {"molecule": "CC(C)N[N+]([O-])=N[O-].[Na+]", "note": "[IPA/NO, isopropylamine (IPA)/NO(Na(CH3)2CHNHN(O)NO)]", "values": [
      {"measurement": "cardiac load as measured by Edv (preload) and Ea (afterload)", "setting": "[1]", "value": "reduced the cardiac load"},
      {"measurement": "cardiac contractility compared with Angeli's salt (Ees)", "setting": "[1]; IPA/NO doses one-half to one-quarter those of Angeli's salt, nearly equivalent blood pressure decrease", "value": "superior to those caused by the HNO/NO^− donating compound Angeli's salt; also recorded: exerted a stronger positive inotropic effect; also recorded: greater increase in cardiac contractility than Angeli's salt"}
    ]},
    {"molecule": "CC(C)NCC(O)COc1cccc2ccccc12", "note": "(stereo not drawn) [propranolol]", "values": [
      {"measurement": "myocardial performance", "setting": "[5]", "value": "reduction in myocardial performance"}
    ]},
    {"molecule": "calcitonin gene-related peptide8-37 (VTHRLAGLLSRSGGVVKNNFVPTNVGSKAF; ends and bridges not checked; UniProt P06881 90-119, looked up, fragment) [CGRP8-37]", "values": [
      {"measurement": "inotropic effect as measured by Ees", "setting": "[6]; CGRP8-37 alone", "value": "modest negative inotropic effect"},
      {"measurement": "effect on the positive inotropic effect of Angeli's salt (Ees)", "setting": "[6]; CGRP8-37 combined with Angeli's salt versus Angeli's salt alone", "value": "effectively prevented the HNO/NO^−-mediated, positive inotropic effect of Angeli's salt"}
    ]}
  ]
}
